Converted amounts (≈) assume the structure as drawn. Where two headings read alike, the source gives them in different places.
Columns and labels:
M. tuberculosis H37Rv [1] = assay: microbe, parasite or virus in culture; type: cell-based; conditions: Mycobacterium tuberculosis, read-out: MIC, 7H9 Broth, H37Rv
M. tuberculosis HN878 [2] = assay: microbe, parasite or virus in culture; type: cell-based
M. tuberculosis H37Rv [3] = assay: microbe, parasite or virus in culture; type: cell-based
M. tuberculosis H37Rv [4] = conditions: in vivo, 25 mg/kg; cited from earlier work
M. tuberculosis H37Rv [5] = type: in vivo, Mycobacterium tuberculosis
M. tuberculosis HN878 [6] = assay: microbe, parasite or virus in culture; type: cell-based; remark: listed apart in the source
M. tuberculosis H37Rv [7] = assay: Pyrazinamide susceptibility by MGIT; type: cell-based; conditions: Mycobacterium tuberculosis, susceptibility determined by MGIT, read-out: MIC, H37Rv (7H9 Broth)
M. tuberculosis HN878 [8] = assay: Pyrazinamide susceptibility by MGIT; type: cell-based; conditions: Mycobacterium tuberculosis, susceptibility determined by MGIT, read-out: MIC, HN878 (7H9 Broth)
[9] = plasma, week 4, Experiment 3, mean ± SD; for Concentration of Telacebec at steady state, 1h: 1 h post-dose; for Concentration of Telacebec at steady state, 5h: 5 h post-dose; for Concentration of Telacebec at steady state, 24h: 24 h post-dose
Description: For S587 and its M3 metabolite, the mean concentrations were compared between mice administered S587 alone and mice administered S587 in combination with T 10 mg/kg (T10), T 50 mg/kg (T50), and T10 plus C. For T, the mean concentrations were compared between mice administered T10 alone and T10 in combination with S587 and S587 + C, as well as between mice administered T50 alone and T50 in combination with S587.
Multidose PK of T and TBAJ-587 in plasma was characterized in infected female BALB/c mice (Charles River Laboratories, Wilmington, MA) receiving oral doses once daily. In week 4 of treatment in Experiment 3, three mice per group per time point were sampled by submandibular bleed at 1, 5, and 24 hours post-dose. Drug concentrations were quantified by a validated high-performance liquid chromatography/mass spectrometry method (Alliance Pharma Inc, Devault, PA).

M. tuberculosis = conditions: phase 2a study; cited from earlier work
[10] = Mycobacterium tuberculosis, HN878; read-out: MIC, 7H9 Broth, HN878
[11] = Mycobacterium tuberculosis, H37RV; read-out: MIC, 7H11 Agar, H37Rv
[12] = Mycobacterium tuberculosis, HN878; read-out: MIC, 7H11 Agar, HN878

Q: Which results are given for `CC(=O)NC[C@H]1CN(c2ccc(N3CCOCC3)c(F)c2)C(=O)O1` [Linezolid, linezolid]?
A: MIC (M. tuberculosis H37Rv [1]): 1 mg/L (≈ 2.96 µM); MIC (M. tuberculosis HN878 [2]; [10]): 0.5 mg/L (≈ 1.48 µM); MIC (M. tuberculosis H37Rv [3]; [11]): 0.5 mg/L (≈ 1.48 µM)

Q: Which “reduction of lung CFU count over 4 weeks” value (M. tuberculosis H37Rv [4]) does the source give for `COc1cc([C@](O)(CCN(C)C)[C@@H](c2cc3cc(Br)ccc3nc2OC)c2cccc(OC)c2F)cc(OC)n1` [TBAJ-587] here?
A: The value was “approximately 5 log10”.

Q: What about the MIC (M. tuberculosis H37Rv [3]; Mycobacterium tuberculosis, H37RV, read-out: MIC, 7H11 Agar, H37Rv) of the same compound?
A: Its MIC is 0.008 mg/L (≈ 0.013 µM).

Q: What about the “mean (±SD) log10 CFU counts, W4” value (M. tuberculosis H37Rv [5]; in vivo) of the same compound?
A: The value was 3.40 ± 0.47 log10 CFU.

Q: And the “reduction of bacterial burden over 4 weeks” value (M. tuberculosis H37Rv [5]; in vivo, 12.5 mg/kg)?
A: The value was “more than 4 log10”.

Q: And the MIC (M. tuberculosis HN878 [6]; Mycobacterium tuberculosis, HN878, read-out: MIC, 7H11 Agar, HN878)?
A: Its MIC is 0.004 mg/L (≈ 0.00651 µM).

Q: With `COc1nc2ccc(Br)cc2cc1[C@@H](c1ccccc1)[C@@](O)(CCN(C)C)c1cccc2ccccc12` [Bedaquiline, bedaquiline] as the compound, how does the MIC (M. tuberculosis H37Rv [1]) read?
A: Its MIC is 0.25 mg/L (≈ 0.45 µM).

Q: And the MIC (M. tuberculosis H37Rv [3]; [11])?
A: The MIC was 0.03 mg/L (≈ 0.054 µM).

Q: And the MIC (M. tuberculosis HN878 [6]; [12])?
A: Its MIC is 0.03 mg/L (≈ 0.054 µM).

Q: Which MIC (M. tuberculosis H37Rv [3]; [11]) does the source give for `COc1ncnc(Cn2cc(C(=O)NCCO)c3ncc(C)cc32)c1C` [TBA-7371] here?
A: The MIC was 0.25 mg/L (≈ 0.703 µM).

Q: And the MIC (M. tuberculosis HN878 [6]; [12])?
A: The MIC was 0.5 mg/L (≈ 1.41 µM).

Q: Which results are given for `COc1cc([C@](O)(CCN(C)C)[C@@H](c2cc3cc(Br)ccc3nc2OC)c2cc(OC)nc(OC)c2OC)cc(OC)n1` [TBAJ-876]?
A: MIC (M. tuberculosis H37Rv [3]; [11]): 0.002 to 0.004 mg/L (≈ 0.00304 to 0.00608 µM); reduction of CFU counts over 4 weeks compared to D0 (M. tuberculosis H37Rv [5]; Experiment 2, S876 6.25 mg/kg, 4 weeks): more than 3.5 log10; mean (±SD) log10 CFU counts, W4 (M. tuberculosis H37Rv [5]; Experiment 2, lungs, 4 weeks of treatment, doses mg/kg/dose as subscripts, bid = twice daily, D0 7.51 ± 0.06, lower limit of detection 1.66 log10): 3.74 ± 0.44 log10 CFU; MIC (M. tuberculosis HN878 [6]; [12]): 0.004 mg/L (≈ 0.00608 µM)

Q: With `NC(=O)c1cnccn1` [Pyrazinamide, pyrazinamide] as the compound, how does the MIC (M. tuberculosis H37Rv [7]) read?
A: The MIC was less than 100 mg/L.

Q: And the MIC (M. tuberculosis HN878 [8])?
A: The MIC was less than 100 mg/L.

Q: Which results are given for `CO[C@H]1/C=C/O[C@@]2(C)Oc3c(C)c(O)c4c(O)c(c(/C=N/N5CCN(C)CC5)c(O)c4c3C2=O)NC(=O)/C(C)=C\C=C\[C@H](C)[C@H](O)[C@@H](C)[C@@H](O)[C@@H](C)[C@H](OC(C)=O)[C@@H]1C` [Rifampin]?
A: MIC (M. tuberculosis H37Rv [1]): 0.25 mg/L (≈ 0.304 µM); MIC (M. tuberculosis HN878 [2]; Mycobacterium tuberculosis, HN878, read-out: MIC, 7H9 Broth, HN878): 0.25 mg/L (≈ 0.304 µM)

Q: Which results are given for `CCc1nc2ccc(Cl)cn2c1C(=O)NCc1ccc(N2CCC(c3ccc(OC(F)(F)F)cc3)CC2)cc1` [Telacebec, telacebec]?
A: MIC (M. tuberculosis H37Rv [3]; Mycobacterium tuberculosis, 432 h; parental H37Rv strain; agar proportion method; […]; read-out: MIC): 0.008 mg/L (≈ 0.0144 µM); MIC (M. tuberculosis H37Rv [3]; [11]): 0.008 mg/L (≈ 0.0144 µM); Concentration of Telacebec at steady state, 1h ([9]; T 10 mg/kg): 1.462 ± 0.435 µg/mL; Concentration of Telacebec at steady state, 1h ([9]; T 50 mg/kg): 2.642 ± 1.857 µg/mL; Concentration of Telacebec at steady state, 5h ([9]; T 10 mg/kg): 2.265 ± 0.102 µg/mL; Concentration of Telacebec at steady state, 5h ([9]; T 50 mg/kg): 7.31 ± 3.99 µg/mL; Concentration of Telacebec at steady state, 24h ([9]; T 10 mg/kg): 0.921 ± 0.337 µg/mL; Concentration of Telacebec at steady state, 24h ([9]; T 50 mg/kg): 3.008 ± 0.33 µg/mL; early bactericidal activity in TB patients (M. tuberculosis): dose-dependent early bactericidal activity; effect of single drug treatment on lung CFU counts compared to D0 (M. tuberculosis H37Rv [5]; Experiment 3, T at 10 and 50 mg/kg, 4 weeks, no dose-response): bacteriostatic; mean (±SD) log10 CFU counts, W4 (M. tuberculosis H37Rv [5]; Experiment 3, lungs, 4 weeks of treatment, T at 10 mg/kg where given, S587 12.5, C 12.5, Z 150 mg/kg, D0 7.52 ± 0.13): 7.65 ± 0.05 log10 CFU; mean (±SD) log10 CFU counts, W4 (M. tuberculosis H37Rv [5]; Experiment 3, lungs, 4 weeks of treatment, T at 50 mg/kg, S587 12.5 mg/kg, D0 7.52 ± 0.13): 7.70 ± 0.06 log10 CFU; MIC (M. tuberculosis HN878 [6]; [12]): 0.002 mg/L (≈ 0.00359 µM)

Q: With `CC(C)/N=c1\cc2n(-c3ccc(Cl)cc3)c3ccccc3nc-2cc1Nc1ccc(Cl)cc1` [Clofazimine, clofazimine] as the compound, how does the MIC (M. tuberculosis H37Rv [3]; [11]) read?
A: The MIC was 0.25 mg/L (≈ 0.528 µM).

Q: And the MIC (M. tuberculosis HN878 [6]; [12])?
A: Its MIC is 0.25 mg/L (≈ 0.528 µM).

Q: Which results are given for `COc1c(N2C[C@@H]3CCCN[C@@H]3C2)c(F)cc2c(=O)c(C(=O)O)cn(C3CC3)c12` [Moxifloxacin, moxifloxacin]?
A: MIC (M. tuberculosis H37Rv [1]): 0.5 mg/L (≈ 1.25 µM); MIC (M. tuberculosis HN878 [2]; [10]): 0.25 mg/L (≈ 0.623 µM)

Q: Which results are given for `O=[N+]([O-])c1cn2c(n1)OC[C@@H](OCc1ccc(OC(F)(F)F)cc1)C2` [Pretomanid, pretomanid]?
A: MIC (M. tuberculosis H37Rv [1]): 0.125 mg/L (≈ 0.348 µM); MIC (M. tuberculosis HN878 [2]; [10]): 0.06 mg/L (≈ 0.167 µM); MIC (M. tuberculosis H37Rv [3]; [11]): 0.06 mg/L (≈ 0.167 µM); MIC (M. tuberculosis HN878 [6]; [12]): 0.125 mg/L (≈ 0.348 µM)
